Where a name gives a salt, the structure may show the parent alone. Read-outs that look alike come from different tables or passages of the source.
Assays:
PI3Kδ (p110δ/p85α) = molecular target: T1, PI3Kδ (p110δ/p85α) (Homo sapiens, UniProt O00329); experiment: PI3Kδ scintillation proximity assay; format: biochemical
T1 construct: purchased Millipore (Bedford, Mass.)
Outline: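 IC50 was fitted to percent control activity against log concentration, from scintillation proximity counting of 33P-labelled lipid product captured on WGA beads after an EDTA quench. Reactions ran 210 minutes at room temperature: 4 nM PI3Kδ (p110δ/p85α), 20 μM PIP2, 20 μM ATP, pH 6.7 MOPS buffer, 0.5% DMSO.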

[1] = system: Pfeiffer cell line (diffuse large B cell lymphoma); experiment: Pfeiffer cell proliferation assay; format: cell-based
Protocol: Pfeiffer cell line (diffuse large B cell lymphoma) was purchased from ATCC (Manassas, Va.) and maintained in the culture medium recommended (RPMI and 10% FBS). To measure the anti-proliferation activity of the compounds, the Pfeiffer cells were plated with the culture medium (2×10^3 cells/well/per 200 μl) into 96-well ultra-low binding plates (Corning, Corning, N.Y.), in the presence or absence of a concentration range of test compounds. […]

[2] = Homo sapiens, Pfeiffer, first of two isolated isomers
[3] = Homo sapiens, Pfeiffer, second of two isolated isomers

T1 sequence (O00329 whole entry): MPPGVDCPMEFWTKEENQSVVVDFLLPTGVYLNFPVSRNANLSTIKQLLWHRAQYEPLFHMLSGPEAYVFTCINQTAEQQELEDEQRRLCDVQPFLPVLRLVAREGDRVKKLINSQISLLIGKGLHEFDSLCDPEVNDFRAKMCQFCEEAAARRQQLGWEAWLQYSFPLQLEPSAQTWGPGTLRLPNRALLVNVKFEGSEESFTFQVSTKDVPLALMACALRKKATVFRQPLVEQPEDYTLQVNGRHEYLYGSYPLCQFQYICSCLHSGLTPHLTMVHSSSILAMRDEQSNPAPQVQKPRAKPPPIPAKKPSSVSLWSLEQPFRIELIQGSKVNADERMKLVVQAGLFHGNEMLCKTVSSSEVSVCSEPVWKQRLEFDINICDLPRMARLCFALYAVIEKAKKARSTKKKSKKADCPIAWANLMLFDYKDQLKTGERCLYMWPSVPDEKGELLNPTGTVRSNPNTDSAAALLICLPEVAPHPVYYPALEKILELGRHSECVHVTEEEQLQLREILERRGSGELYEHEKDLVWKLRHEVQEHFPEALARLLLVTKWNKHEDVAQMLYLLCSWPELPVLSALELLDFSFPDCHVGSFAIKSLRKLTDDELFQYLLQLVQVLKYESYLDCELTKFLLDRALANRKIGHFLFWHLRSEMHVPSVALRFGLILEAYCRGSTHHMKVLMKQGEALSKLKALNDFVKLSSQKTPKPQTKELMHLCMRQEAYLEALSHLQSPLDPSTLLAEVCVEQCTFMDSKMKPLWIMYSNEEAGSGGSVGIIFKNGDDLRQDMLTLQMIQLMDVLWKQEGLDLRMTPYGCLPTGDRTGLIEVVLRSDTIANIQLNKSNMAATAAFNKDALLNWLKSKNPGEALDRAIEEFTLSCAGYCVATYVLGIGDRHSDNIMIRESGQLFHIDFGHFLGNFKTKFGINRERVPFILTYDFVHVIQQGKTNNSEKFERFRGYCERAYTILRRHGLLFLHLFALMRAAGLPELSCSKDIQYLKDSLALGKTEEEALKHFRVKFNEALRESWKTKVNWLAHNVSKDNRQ
T1 sequence (P27986 whole entry partner): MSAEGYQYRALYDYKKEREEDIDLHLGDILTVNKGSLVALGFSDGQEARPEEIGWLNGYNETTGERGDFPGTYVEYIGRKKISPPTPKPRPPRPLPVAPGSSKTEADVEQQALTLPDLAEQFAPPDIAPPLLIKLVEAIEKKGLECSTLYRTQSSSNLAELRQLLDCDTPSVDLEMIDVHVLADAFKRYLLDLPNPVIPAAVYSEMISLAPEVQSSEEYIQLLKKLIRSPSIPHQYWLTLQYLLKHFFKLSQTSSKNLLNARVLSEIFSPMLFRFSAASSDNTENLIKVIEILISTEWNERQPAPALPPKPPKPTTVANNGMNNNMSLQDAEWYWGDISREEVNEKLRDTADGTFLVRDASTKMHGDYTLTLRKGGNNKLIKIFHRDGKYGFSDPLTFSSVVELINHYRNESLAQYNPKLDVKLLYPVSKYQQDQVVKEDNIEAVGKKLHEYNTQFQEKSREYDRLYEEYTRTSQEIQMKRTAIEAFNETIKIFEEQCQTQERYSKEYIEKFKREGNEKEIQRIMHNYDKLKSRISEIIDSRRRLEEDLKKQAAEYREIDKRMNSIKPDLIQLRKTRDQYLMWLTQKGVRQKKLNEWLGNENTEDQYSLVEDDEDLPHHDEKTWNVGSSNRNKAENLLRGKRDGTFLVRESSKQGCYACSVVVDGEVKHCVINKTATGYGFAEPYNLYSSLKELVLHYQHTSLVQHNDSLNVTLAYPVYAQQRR

| IC50 (PI3Kδ (p110δ/p85α)) [nM] | IC50 (PI3Kδ (p110δ/p85α); separated isomer, 1st peak) [nM] | IC50 (PI3Kδ (p110δ/p85α); separated isomer, 2nd peak) [nM] | IC50 [1, 3] [nM] | SMILES | also measured |
| --- | --- | --- | --- | --- | --- |
| < 50 | – | – | – | Cc1cc(C(C)Nc2ncnc3[nH]cnc23)c(-c2cccc(F)c2)c2nnccc12 (single isomer, unassigned) [Example 36, N-{1-[8-(3-fluorophenyl)-5-methylcinnolin-7-yl]ethyl}-9H-purin-6-amine] | IC50 ([1]; [3H]-thymidine incorporation): < 50 nM |
| 500 to 1000 | – | – | – | Cc1cc(C(C)Nc2ncnc3[nH]cnc23)c(-c2cccc(F)c2)c2nnccc12 (single isomer, unassigned) [Example 37, N-{1-[8-(3-fluorophenyl)-5-methylcinnolin-7-yl]ethyl}-9H-purin-6-amine] | IC50 ([1]; [3H]-thymidine incorporation): 500 to 1000 nM |
| < 50 | – | – | – | COC(=O)N1CCN(c2c(C(C)Nc3ncnc4[nH]cnc34)cc(Cl)c3cccnc23)CC1 (stereo not drawn) [Example 85, Methyl 4-{5-Chloro-7-[1-(9H-purin-6-ylamino)ethyl]quinolin-8-yl}piperazine-1-carboxylatebis(trifluoroacetate)] | – |
| – | > 1000 | < 50 | – | CCC(=O)N[C@H]1CCN(c2c(C(C)Nc3ncnc4[nH]cnc34)cc(Cl)c3cccnc23)C1 (stereo partly drawn) [Example 77, N-((3S)-1-{5-Chloro-7-[1-(9H-purin-6-ylamino)ethyl]quinolin-8-yl}pyrrolidin-3-yl)propanamide tris(trifluoroacetate)] | – |
| > 1000 | – | – | – | CNC(=O)c1cc(F)cc(-c2c(C(C)Nc3ncnc4[nH]cnc34)cc(Cl)c3ccnnc23)c1 (stereo not drawn) [Example 40, 3-{5-Chloro-7-[1-(9H-purin-6-ylamino)ethyl]cinnolin-8-yl}-5-fluoro-N-methylbenzamide] | – |
| < 50 | – | – | – | CC(Nc1ncnc2[nH]cnc12)c1cc(Cl)c2ccnnc2c1-c1ccccc1F (single isomer, unassigned) [Example 28, N-{1-[5-Chloro-8-(2-fluorophenyl)cinnolin-7-yl]ethyl}-9H-purin-6-amine] | – |
| 100 to 250 | – | – | – | Cc1cc(C(C)Nc2ncnc3[nH]cnc23)c(-c2cccc(F)c2)c2ncccc12 (stereo not drawn) [Example 50, N-{1-[8-(3-Fluorophenyl)-5-methylquinolin-7-yl]ethyl}-9H-purin-6-amine] | – |
| > 1000 | – | – | – | CC(Nc1ncnc2[nH]cnc12)c1cc(F)c2ccnnc2c1-c1cc(F)cc(F)c1 (single isomer, unassigned) [Example 30, N-{1-[8-(3,5-difluorophenyl)-5-fluorocinnolin-7-yl]ethyl}-9H-purin-6-amine trifluoroacetate] | – |
| > 1000 | – | – | – | CC(Nc1ncnc2[nH]cnc12)c1cc(Cl)c2ccnnc2c1-c1cncc(F)c1 (single isomer, unassigned) [Example 35, N-{1-[5-chloro-8-(5-fluoropyridin-3-yl)cinnolin-7-yl]ethyl}-9H-purin-6-amine trifluoroacetate] | – |

Continued, compound first:

| SMILES | IC50 (PI3Kδ (p110δ/p85α)) [nM] | IC50 (PI3Kδ (p110δ/p85α); separated isomer, 1st peak) [nM] | IC50 (PI3Kδ (p110δ/p85α); separated isomer, 2nd peak) [nM] | IC50 [1, 3] [nM] | also measured |
| --- | --- | --- | --- | --- | --- |
| COC1CCCN(c2c(C(C)Nc3ncnc4[nH]cnc34)cc(Cl)c3cccnc23)C1 (stereo not drawn) [Example 67, N-{1-[5-Chloro-8-(3-methoxypiperidin-1-yl)quinolin-7-yl]ethyl}-9H-purin-6-amine tris(trifluoroacetate)] | – | 100 to 250 | 250 to 500 | 100 to 250 | IC50 [1, 2]: 100 to 250 nM |
| CC(C)C(=O)N[C@H]1CCN(c2c(C(C)Nc3ncnc4[nH]cnc34)cc(Cl)c3cccnc23)C1 (stereo partly drawn) [Example 78, N-((3S)-1-{5-Chloro-7-[1-(9H-purin-6-ylamino)ethyl]quinolin-8-yl}pyrrolidin-3-yl)-2-methylpropanamide tris(trifluoroacetate)] | – | > 1000 | < 50 | 500 to 1000 | – |
| CC(Nc1ncnc2[nH]cnc12)c1cc(Cl)c2cccnc2c1N1CCC(Oc2ccccc2)CC1 (stereo not drawn) [Example 75, N-{1-[5-Chloro-8-(4-phenoxypiperidin-1yl)quinolin-7-yl]ethyl}-9H-purin-6-amine bis(trifluoroacetate)] | > 1000 | – | – | 250 to 500 | – |
| CC(Nc1ncnc2[nH]cnc12)c1cc(F)c2cccnc2c1N1CC[C@@H](O)C1 (stereo partly drawn) [Example 53, (3R)-1-{5-fluoro-7-[1-(9H-purin-6-ylamino)ethyl]quinolin-8-yl}pyrrolidin-3-ol] | – | > 1000 | 100 to 250 | 250 to 500 | – |
| COC(=O)N[C@H]1CCN(c2c(C(C)Nc3ncnc4[nH]cnc34)cc(Cl)c3cccnc23)C1 (stereo partly drawn) [Example 79, Methyl((3S)-1-{5-Chloro-7-[1-(9H-purin-6-ylamino)ethyl]quinolin-8-yl}pyrrolidin-3-yl)carbamate tris(trifluoroacetate)] | – | 50 to 100 | < 50 | 100 to 250 | IC50 [1, 2]: 250 to 500 nM |
| CC(Nc1ncnc2[nH]cnc12)c1cc(Cl)c2cccnc2c1N1CC[C@H](NS(C)(=O)=O)C1 (stereo partly drawn) [Example 80, N-((3S)-1-{5-Chloro-7-[1-(9H-purin-6-ylamino)ethyl]quinolin-8-yl}pyrrolidin-3-yl)methanesulfonamide tris(trifluoroacetate)] | – | 250 to 500 | < 50 | 100 to 250 | – |
| CC(Nc1ncnc2[nH]cnc12)c1cc(Cl)c2cccnc2c1N1CCC[C@H](O)C1 (stereo partly drawn) [Example 48, (3S)-1-{5-Chloro-7-[1-(9H-purin-6-ylamino)ethyl]quinolin-8-yl}piperidin-3-ol] | – | < 50 | > 1000 | > 1000 | IC50 [1, 2]: > 1000 nM |
| CC(Nc1ncnc2[nH]cnc12)c1cc(Cl)c2cccnc2c1N1CCCC(CO)C1 (stereo not drawn) [Example 63, (1-{5-Chloro-7-[1-(9H-purin-6-ylamino)ethyl]quinolin-8-yl]piperidin-3-yl)methanol tris(trifluoroacetate)] | – | 100 to 250 | 100 to 250 | > 1000 | IC50 [1, 2]: > 1000 nM |
| COC1CCN(c2c(C(C)Nc3ncnc4[nH]cnc34)cc(Cl)c3cccnc23)C1 (stereo not drawn) [Example 68, N-{1-[5-Chloro-8-(3-methoxypyrrolidin-1-yl)quinolin-7-yl]ethyl}-9H-purin-6-amine tris(trifluoroacetate)] | – | 50 to 100 | < 50 | 50 to 100 | IC50 [1, 2]: 100 to 250 nM |
| COCC(=O)N1CCN(c2c(C(C)Nc3ncnc4[nH]cnc34)cc(Cl)c3cccnc23)CC1 (stereo not drawn) [Example 87, N-(1-{5-Chloro-8-[4-(methoxyacetyl)piperazin-1-yl]quinolin-7-yl}ethyl)-9H-purin-6-amine bis(trifluoroacetate)] | < 50 | – | – | – | – |
| CC(Nc1ncnc2[nH]cnc12)c1ccc2ccccc2c1-c1cncc(F)c1 (stereo not drawn) [Example 5, N-{1-[1-(5-fluoropyridin-3-yl)-2-napthyl]ethyl}-9H-purin-6-amine bis-trifluoroacetate] | < 50 | – | – | – | – |
| CC(Nc1ncnc2[nH]cnc12)c1cc(Cl)c2cccnc2c1N1CCN(C2CCCCC2)CC1 (stereo not drawn) [Example 65, N-{1-[5-Chloro-8-(4-cyclohexylpiperazin-1-yl)quinolin-7-yl]ethyl}-9H-purin-6-amine tris(trifluoroacetate)] | 50 to 100 | – | – | – | – |
| CC(Nc1ncnc2[nH]cnc12)c1cc(Cl)c2cccnc2c1N1CCN(C(=O)C2CC2)CC1 (stereo not drawn) [Example 84, N-(1-{5-Chloro-8-[4-(cyclopropylcarbonyl)piperazin-1-yl]quinolin-7-yl}ethyl)-9H-purin-6-amine bis(trifluoroacetate)] | < 50 | – | – | – | – |
| CC(Nc1ncnc2[nH]cnc12)c1cc(Cl)c2cccnc2c1N1CCC(NS(C)(=O)=O)CC1 (stereo not drawn) [Example 81, N-(1-{5-Chloro-7-[1-(9H-purin-6-ylamino)ethyl]quinolin-8-yl}piperidin-4-yl)methanesulfonamide bis(trifluoroacetate)] | 100 to 250 | – | – | – | – |
| CC(Nc1ncnc2[nH]cnc12)c1cc(Cl)c2cccnc2c1N1CCC(CCO)CC1 (stereo not drawn) [Example 73, 2-(1-{5-Chloro-7-[1-(9H-purin-6-ylamino)ethyl]quinolin-8-yl}piperidin-4-yl)ethanol bis(trifluoroacetate)] | 100 to 250 | – | – | – | – |
| CC(Nc1ncnc2[nH]cnc12)c1cc(Cl)c2cccnc2c1N1CCN(C(=O)c2ccncc2)CC1 (stereo not drawn) [Example 98, N-{1-[5-Chloro-8-(4-isonicotinoylpiperazin-1-yl)quinolin-7-yl]ethyl}-9H-purin-6-amine tris(trifluoroacetate)] | < 50 | – | – | – | – |
| COC(=O)NC1CCN(c2c(C(C)Nc3ncnc4[nH]cnc34)cc(Cl)c3cccnc23)CC1 (stereo not drawn) [Example 83, Methyl(1-{5-Chloro-7-[1-(9H-purin-6-ylamino)ethyl]quinolin-8-yl}piperidin-4-yl)carbamate bis(trifluoroacetate)] | < 50 | – | – | – | – |
